Data taken from patent publication US10759831B2, “Peptide compound, production method therefor, and use thereof” (iNtRON Biotechnology, Inc., priority 2014, dated 2020).
Read-outs that look alike come from different tables or passages of the source. Each block holds one molecule with its values, some of them ahead of it.

Legend:
[1] = tested on: RKO cells; assay: Combination of Asperphenin B with other anticancer drugs, SRB cell viability; assay type: cell-based, human; details: 48 hours; for Effects of cell growth inhibition in combination with Asperphenin B compared to the anticancer drug alone: FIGS. 7A to 7C; for Effect of administration in combination: <1 synergistic, =1 additive, >1 antagonistic
Description: RKO cells diluted in a medium containing 10% (v/v) FBS were inoculated in each well of a 96-well microplate so that each plate included 7×10^3 cells, and then, the cells were cultured for about 24 hours at a temperature of 37° C. under the condition of 5% CO2. In the medium containing 10% (v/v) FBS, irinotecan (Sigma Aldrich), 5-fluorouracil (Sigma Aldrich), or gemsitabin (Sigma Aldrich) was mixed with […] at a ratio of 1:1, and then, the mixture was added to the cultured cells. Then, the cells were cultured for 48 hours at a temperature of 37° C. under the conditions of 5% CO2. […] In addition, the effects of the administration in combination were measured according to Equation 1, and results thereof are shown in Table 8. Effects of administration in combination=D1/(Dx)1+D2/(Dx)2 [Equation 1] D1: Concentration of […] with expected effect in administration in combination D2: Concentration of other anticancer drugs with expected effect in administration in combination (Dx)1: Concentration of […] with expected effect in administration of […] only (Dx)2: Concentration of other anticancer drugs with expected effect in administration of other anticancer drugs only […]

[2] = tested on: colon cancer cell line HCT116; assay: SRB cell viability assay, colon cancer cell line HCT116; assay type: cell-based
Description: (§1) Regarding a lung cancer cell line A549 (Korean Cell line Bank), a colon cancer cell line HCT116 (ATCC), a stomach cancer cell line SNU638 (Korean Cell Line Bank), a liver cancer cell line SK-HEP-1 (Korean Cell line Bank), and a breast cancer cell line MDA-MB-231 (Korean Cell line Bank), a sulforhodamine B (SRB) assay which is a method of measuring cell viability was used for measuring apoptosis effects of Asperphenin.
(§2) In detail, 190 μl of a cell suspension at a concentration of 3.5×10^4 cells/ml was inoculated in each well of a 96-well microplate. 0.8 μM, 4 μM, 20 μM, or 100 μM of Asperphenin was added to the cell culture medium, and cultured at a temperature of 37° C. for 72 hours under the condition of 5% CO2. After incubation, 50 μl of 50% (v/v) trichloroacetic acid solution (Sigma Aldrich) was added to each well, and then, incubated at a temperature of 4° C. for 30 minutes, to thereby fix the cells thereto. The fixed cells were washed with water five times, and then, dried in the air.
(§3) Next, 80 μl of a 0.4% (w/v) SRB aqueous solution (Sigma Aldrich) containing 1% (v/v) acetic acid (DUKSAN) was added to each well, incubated at room temperature for 1 hour to stain cells therein, and the stained cells washed with water and dried. The cells were dissolved by adding 200 μl of 10 mM Tris (pH 10.0) (Sigma Aldrich) to each well, and then, the number of living cells was calculated by measuring the absorbance thereof at 515 nm. The concentration of the compound inhibiting cell growth to 50% based on the number of the living cells, i.e., 50% inhibition concentration (IC50) was calculated, and the results are shown in Table 3. Here, as a positive control, etoposide (Sigma Aldrich) was used.
From the colon cancer cell lines HCT116 (ATCC), HCT15 (Korean Cell Line Bank), LS174T (Korean Cell Line Bank), RKO(ATCC), and SW480(ATCC), cell growth inhibition concentrations (IC50, μM) were calculated as described in Example 2-1, and the results are shown in Table 4. Here, as a positive control, paclitaxel (Sigma Aldrich) was used.

[3] = tested on: colon cancer cell line HCT15; assay: SRB cell viability assay, colon cancer cell line HCT15; assay type: cell-based; details: Homo sapiens, HCT-15, read-out: Growth inhibition value of cancer cell (IC50)
Description: as §2
(§4) Next, 80 μl of a 0.4% (w/v) SRB aqueous solution (Sigma Aldrich) containing 1% (v/v) acetic acid (DUKSAN) was added to each well, incubated at room temperature for 1 hour to stain cells therein, and the stained cells washed with water and dried. The cells were dissolved by adding 200 μl of 10 mM Tris (pH 10.0) (Sigma Aldrich) to each well, and then, the number of living cells was calculated by measuring the absorbance thereof at 515 nm. […]
(§5) From the colon cancer cell lines HCT116 (ATCC), HCT15 (Korean Cell Line Bank), LS174T (Korean Cell Line Bank), RKO(ATCC), and SW480(ATCC), cell growth inhibition concentrations (IC50, μM) were calculated as described in Example 2-1, and the results are shown in Table 4. […]

[4] = tested on: colon cancer cell line LS174T; assay: SRB cell viability assay, colon cancer cell line LS174T; assay type: cell-based; details: Homo sapiens, read-out: Growth inhibition value of cancer cell (IC50)
Description: as §2, §4, §5

[5] = tested on: colon cancer cell line RKO; assay: SRB cell viability assay, colon cancer cell line RKO; assay type: cell-based; details: Homo sapiens, read-out: Growth inhibition value of cancer cell (IC50)
Description: as §2, §4, §5

[6] = tested on: colon cancer cell line SW480; assay: SRB cell viability assay, colon cancer cell line SW480; assay type: cell-based; details: Homo sapiens, read-out: Growth inhibition value of cancer cell (IC50)
Description: as §2, §4, §5

[7] = tested on: lung cancer cell line A549; assay: SRB cell viability assay, lung cancer cell line A549; assay type: cell-based; details: A549, 72 hours, read-out: Cell growth inhibition concentration (IC50)
Description: as §1, §2, §3

[8] = tested on: stomach cancer cell line SNU638; assay: SRB cell viability assay, stomach cancer cell line SNU638; assay type: cell-based; details: SNU638, 72 hours, read-out: Cell growth inhibition concentration (IC50)
Description: as §1, §2, §3

[9] = tested on: liver cancer cell line SK-HEP-1; assay: SRB cell viability assay, liver cancer cell line SK-HEP-1; assay type: cell-based; details: SK-HEP-1, 72 hours, read-out: Cell growth inhibition concentration (IC50)
Description: as §1, §2, §3

[10] = tested on: breast cancer cell line MDA-MB-231; assay: SRB cell viability assay, breast cancer cell line MDA-MB-231; assay type: cell-based; details: MDA-MB-231, 72 hours, read-out: Cell growth inhibition concentration (IC50)
Description: as §1, §2, §3

[11] = Physicochemical characterization

Structure (SMILES): Nc1ccn([C@@H]2O[C@H](CO)[C@@H](O)C2(F)F)c(=O)n1 [Gemsitabin, gemsitabin]
Effects of cell growth inhibition in combination with Asperphenin B compared to the anticancer drug alone [1]: increased
Effect of administration in combination ([1]; gemsitabin 0.32 μM + Asperphenin B 8 μM): 0.907
Effect of administration in combination ([1]; gemsitabin 1.6 μM + Asperphenin B 8 μM): 0.882
Effect of administration in combination ([1]; gemsitabin 8 μM + Asperphenin B 8 μM): 0.801
Effect of administration in combination ([1]; gemsitabin 40 μM + Asperphenin B 8 μM): 0.714

IC50 ([2]; Homo sapiens, HCT-116, HCT116, Table 4, read-out: Growth inhibition value of cancer cell (IC50)): 0.42 nM
IC50 [3]: > 100 nM
IC50 [4]: 0.46 nM
IC50 [5]: 0.21 nM
IC50 [6]: > 100 nM
Structure (SMILES): CC(=O)O[C@H]1C(=O)[C@@]2(C)[C@H]([C@H](OC(=O)c3ccccc3)[C@]3(O)C[C@H](OC(=O)[C@H](O)[C@@H](NC(=O)c4ccccc4)c4ccccc4)C(C)=C1C3(C)C)[C@]1(OC(C)=O)CO[C@@H]1C[C@@H]2O [Paclitaxel, paclitaxel, reference compound]

Structure (SMILES): CCc1c2c(nc3ccc(OC(=O)N4CCC(N5CCCCC5)CC4)cc13)-c1cc3c(c(=O)n1C2)COC(=O)[C@]3(O)CC [Irinotecan, irinotecan]
Effects of cell growth inhibition in combination with Asperphenin B compared to the anticancer drug alone [1]: increased
Effect of administration in combination ([1]; irinotecan 1.25 μM + Asperphenin B 2.5 μM): 0.792
Effect of administration in combination ([1]; irinotecan 2.5 μM + Asperphenin B 2.5 μM): 0.751
Effect of administration in combination ([1]; irinotecan 5 μM + Asperphenin B 2.5 μM): 0.691
Effect of administration in combination ([1]; irinotecan 10 μM + Asperphenin B 2.5 μM): 0.650

IC50 ([7]; Homo sapiens): 700 nM
IC50 ([2]; Homo sapiens, HCT-116, HCT116, 72 hours, Table 3, read-out: Cell growth inhibition concentration (IC50)): 1900 nM
IC50 ([8]; Homo sapiens, SNU-638): 800 nM
IC50 ([9]; Homo sapiens, SK-HEP1): 600 nM
IC50 ([10]; Homo sapiens): 10600 nM
Structure (SMILES): COc1cc([C@@H]2c3cc4c(cc3[C@@H](O[C@@H]3O[C@@H]5CO[C@@H](C)O[C@H]5[C@H](O)[C@H]3O)[C@H]3COC(=O)[C@H]23)OCO4)cc(OC)c1O [Etoposide, etoposide, reference compound]

Structure (SMILES): O=c1[nH]cc(F)c(=O)[nH]1 [5-fluorouracil]
Effect of administration in combination ([1]; 5-fluorouracil 0.08 μM + Asperphenin B 8 μM): 0.863
Effect of administration in combination ([1]; 5-fluorouracil 0.4 μM + Asperphenin B 8 μM): 0.852
Effect of administration in combination ([1]; 5-fluorouracil 2 μM + Asperphenin B 8 μM): 0.786
Effect of administration in combination ([1]; 5-fluorouracil 10 μM + Asperphenin B 8 μM): 0.765
Effects of cell growth inhibition in combination with Asperphenin B compared to the anticancer drug alone [1]: increased

Structure (SMILES): CCCCCCCCC[C@@H](O)CC(=O)N[C@@H](CC(N)=O)C(=O)N[C@@H](CCC(N)=O)C(=O)N[C@@H](CC(=O)c1cc(C)cc(O)c1C(=O)c1c(O)cccc1O)CC(C)C [Asperphenin A]
IC50 [7]: 14600 nM
IC50 ([2]; HCT116, 72 hours, Table 3, read-out: Cell growth inhibition concentration (IC50)): 1700 nM
IC50 [8]: 5800 nM
IC50 [9]: 2300 nM
IC50 [10]: 3100 nM
Solubility in organic solvent ([11]; methanol and acetone): well dissolved in a moderate organic solvent, such as methanol and acetone
Stability ([11]; room temperature): stable at room temperature
